Our source for the cytotoxicity values is patent US20260256670A1, “COMPOSITION CONTAINING PEPTIDES HAVING SKIN-LIGHTENING EFFECT” (REMEDI CO., LTD., priority 2022, published 2026).

This data set deals with HaCaT cells. Briefly: Cytotoxicity evaluation (CCK8 assay). The format is cell-based. The settings on record: serum-free medium, 24 hours. Here is the method: HaCaT cells and B16F10 cells were cultured in a cell culture medium supplemented with 10% of fetal bovine serum (FBS) and antibiotic solution (100 units/ml penicillin, 100 μg/ml of streptomycin) in DMEM medium. The cells were cultured under conditions maintained at 37° C., 95% humidity, and 5% CO2, and when the cells were 70-80% adhered to the culture dish, they were treated with trypsin-EDTA and subcultured. HaCaT cells were distributed and cultured from Professor Tae-Yoon Kim of the College of Medicine, The Catholic University of Korea, and B16F10 cells were distributed and cultured from the Korean Cell Line Bank.
To evaluate the toxicity of RMNE1 in HaCaT skin cells, 3×10^4 of HaCaT cells were attached to a 96-well plate 12 hours ago. Thereafter, the cells were washed using serum-free DMEM medium and then treated with RMNE1 peptide at different concentrations in the serum-free medium. After 24 hours, the cells were washed a total of three times with serum-free medium, and then cell activity was measured using the CCK8 assay.
(Tetrazolium assays rely on reduction of a dye to a coloured formazan, in cell work by metabolically active cells.)

Ends that are not written are not given here.

In the case of “DEQERRRRRGRTRVRSE [RMNE1, DEQERRRRRGRTRVRSE]”, the cytotoxicity result is listed as “low cytotoxicity”.
